Converted amounts (≈) assume the structure as drawn. Like-named read-outs stand apart in the source and are kept apart here.
Tests used:
[1] = Lipophilicity by RP-HPLC (log k'w); format: physicochemical; settings: RP-HPLC C18, MeOH/10 mM ammonium formate buffer pH 4.5, extrapolated to 100% aqueous mobile phase, 25 °C
Experimental: To place on a more quantitative basis the above SAR trends, the lipophilicity of a number of isatin arylhydrazone derivatives was measured by an RP-HPLC method. The polycratic capacity factors (log k’w) were determined (details in the Experimental Section). Lipophilicity descriptors (i.e., 1-octanol–water partition coefficients) were also calculated (CLOGPs) using two computational tools (Bio-Loom software, v. 1.7 and ACDLabs software, release 10.0). The ACDLabs software was used also for calculating descriptors of polarizability and size, namely molar refractivity (CMR) and molar volume (MV). The experimental lipophilicity parameters (log k’w), along with CMR and MV, are reported in Table 6 for 18 compounds achieving finite IC50s (<100 µM) in the Aβ aggregation assay.
The lipophilicity parameters were determined by an RP-HPLC technique. Methanol solutions of the investigated hydrazone compounds (0.5 mg/mL) were injected into an Agilent 1260 infinity HPLC system (Agilent Technologies Italia, Milan), equipped with a diode array detector (DAD), and a Phenomenex Kinetex C18 column (150 × 4.6 mm, 5 μ, Phenomenex Italy s.r.l., Castel Maggiore, BO, Italy), and eluted at different mobile phase compositions (0.05 increments of MeOH volume fraction in 10 mM ammonium formate buffer at pH 4.5, ranging ϕ between 0.85 and 0.30). All RP-HPLC measurements were carried out at 25 ± 1 °C, at a flow rate of 1.0 mL/min, and at 254 nm wavelength.
The logarithm of capacity factors (log k′ = log (tR − t0)/t0) of each compound at different mobile phase compositions have been calculated; tR represents the retention time of the solute and t0 is the column dead time, measured as the elution time of a KNO3 solution in MeOH. For each compound, the log k′ values increased linearly with decreasing MeOH volume fraction. Logarithms of capacity factors extrapolated to the 100% aqueous mobile phase (log k′w) were calculated from the linear regressions on at least five data points (r^2 > 0.975).

[2] = parameters: method as in PMID 28801274; settings: Tris/HCl buffer, pH 7.4 at 25 °C; cited from earlier work
Aβ40 peptide [3] = target: T1, Aβ40 peptide (Homo sapiens, UniProt P05067); assay: Inhibition of Aβ40 aggregation, ThT fluorescence-based method; format: biochemical
T1 construct: we preferred using Aβ40 peptide
T1 sequence (P05067 672-711 limits assumed): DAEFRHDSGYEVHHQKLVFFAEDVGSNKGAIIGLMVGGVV
Experimental: In vitro inhibition of Aβ aggregation was assessed through a ThT fluorescence-based method, with the use of 2% 1,1,1,3,3,3-hexafluoroisopropanol (HFIP) as aggregation enhancer. In this medium-throughput assay, we preferred using Aβ40 peptide, being more manageable than Aβ42 and less prone to the formation of preaggregates. Samples of Aβ were co-incubated with test molecules in PBS at 100 µM concentration and the antiaggregating activities were measured after 2 h of incubation at 25 °C. For compounds showing >80% Aβ40 aggregation inhibition, IC50s were determined.
(§1) The spectrofluorimetric assays, measuring ThT fluorescence in the presence of Aβ, were done as previously described. Briefly, coincubation samples were prepared as described above (Section 2.2 and Section 2.3) in 96-well black, non-binding microplates (Greiner Bio-One GmbH, Frickenhausen, Germany). Fluorimetric reads were performed in a multiplate reader Infinite M1000 Pro (Tecan, Cernusco sul Naviglio, Italy). Each concentration point was run in triplicate. CD ellipticity measures were performed as detailed in ref. [20], following the increase of the negative band at 215 nm as indicative of β-sheet arrangement.

AChE = tested on: AChE; parameters: method as in PMID 28801274; settings: read-out: IC50 AChE inhibition; cited from earlier work
[4] = parameters: method as in PMID 28801274; settings: pH 7.4 and 37 °C; cited from earlier work
Aβ40 peptide [5] = target: T1, Aβ40 peptide; parameters: method as in PMID 21144622; settings: read-out: IC50 inhibition of Aβ40 aggregation; hit compound, previously reported; cited from earlier work
SH-SY5Y cells [6] = assay: Protection from Aβ42-induced cytotoxicity, MTT assay; format: cell-based, human; settings: 5 µM Aβ42 co-incubated with equimolar 5 µM compound, within two days
Experimental: (§2) Protection from Aβ42-induced cytotoxicity was measured for compound 28 in a conventional cell-based assay, measuring cell viability by means of MTT reduction. Antioxidant activity of 28 was assessed in an H2O2-induced oxidation cell model. Reactive oxygen species (ROS) production was detected by means of a spectrofluorometric measure of the fluorescent probe 2′,7′-dichlorofluorescein (DCF), formed by oxidation of 2′,7′-dichlorodihydrofluorescein (DCFH). In both assays, human SH-SY5Y neuroblastoma cell line was used.
Cytoprotection from Aβ42-induced neurotoxicity and from ROS generation was assessed in SH-SY5Y cells as already described. At least three independent experiments with six replicates (n ≥ 18) were carried out, and the results were averaged. Briefly, for MTT assay, SH-SY5Y cells were cultured in DMEM-Dulbecco’s modified Eagle’s medium (Sigma-Aldrich), grown to 70% confluence and seeded for experiment in 96-well plates at a density of 10,000 cells/well. Cultured cells were added with a DMEM solution of Aβ42, alone or in mixture with 28 (5 μM final concentration of both) and incubated at 37 °C in 5% CO2. […] After removal of solution and addition of DMSO, the absorbance of product formazan produced from MTT was measured at 570 nm using a multilabel plate counter Victor3 V (Perkin Elmer, Milan, Italy), with DMSO medium as the blank solution.

[7] = Aqueous solubility in Tris/HCl buffer; format: physicochemical; settings: pH 7.4 at 25 °C
Excerpt: Based on data in Table 1, Table 2, Table 3, Table 4 and Table 5, compound 28 was selected for further biological and biophysical studies, aimed at elucidating the mechanism of disruption of Aβ aggregation, and evaluating the activity in biochemical assays related to neurodegeneration, and cytoprotection in a cell model of Aβ toxicity. Starting from the evidence that a bulky substituent led to a net improvement of antiaggregating activity (Table 5), we chose the N^1-cyclopropyl derivative 28 as the best compromise between in vitro activity and aqueous solubility.

Aβ42 peptide = Aβ42 peptide (Homo sapiens, UniProt P05067); assay: Kinetics of Aβ42 fibrillization (ThT fluorescence and CD); format: biochemical; settings: 50 µM Aβ42 with 20 µM compound, PBS 2% ethanol, 37 °C, after one week
Chain of Aβ42 peptide (P05067 672-713 limits assumed): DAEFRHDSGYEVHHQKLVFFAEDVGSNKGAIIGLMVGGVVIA
Experimental: For ThT and circular dichroism (CD) time-course measures of Aβ aggregation (50 µM), alone or in the presence of 28 (20 µM), samples were prepared in PBS containing 2% v/v ethanol as the cosolvent, and incubated at 37 °C. Aβ42 peptide was preferred, being the principal responsible of amyloid burden in AD brain. Kinetics of amyloid aggregation of Aβ42 was followed by means of ThT fluorescence and CD absorption. In the latter case, we monitored the increase of the negative band at 215 nm, probing the random coil to β-sheet transition in folding peptide. Results depicted in Figure 4 show a fast fibrillization of self-aggregating peptide (dotted black line), with fibrils already detectable in large amount in the first 48 h of incubation.
as §1

SH-SY5Y cells [8] = assay: Antioxidant activity, H2O2-induced ROS production, DCFH-DA assay; format: cell-based; settings: Homo sapiens, 20 µM compound, 100 µM hydrogen peroxide, read-out: ROS scavenging, maximum effect relative to effect of 100 µM quercetin
Experimental: as §2
Intracellular ROS production was evaluated using an oxidation-sensitive fluorescent probe, 2′,7′-dichlorodihydrofluorescin diacetate (DCFH-DA; Sigma-Aldrich). Viable SHSY5Y cells were seeded in a black 96-well cell culture plate for 24 h, then the cells were incubated in DMEM supplemented with different concentration (0 to 20 μM) of 28 for 1 h. After washing, DCFH-DA (50 μM final concentration) was added directly to each well, and the plate was incubated at 37 °C in 5% CO2 for 0.5 h. […] The formation of fluorescent dichlorofluorescein (DCF) due to oxidation of DCFH in the presence of ROS was read directly in each well at an excitation wavelength of 485 nm and an emission wavelength of 530 nm using a multilabel plate reader Victor3 V (Perkin Elmer), with DMSO medium as the control.

Compound | log k'w [1] | solubility [2] | IC50 (Aβ40 peptide [3]; Aβ40 aggregation inhibition, read-out: pIC50, Aβ antiaggregating potency (converted)) | IC50 (AChE) | half-life [4] | IC50 (Aβ40 peptide [5]) | cell viability (MTT reduction) (SH-SY5Y cells [6]) | solubility [7] | IC50 (Aβ40 peptide [3]) | fibril content compared with that of control peptide (Aβ42 peptide) | Emax at 20 µM (SH-SY5Y cells [8])
COc1ccc2c(c1)/C(=N/Nc1ccc(C(C)C)cc1)C(=O)N2 [Compound 1, (3Z)-5-methoxy-1H-indole-2,3-dione 3-[(4-isopropylphenyl)hydrazone]] | 5.44 | 71 µM (≈ 22 µg/mL) | 0.398 µM | 6.25 µM | 24 h | 0.43 ± 0.04 µM | – | – | – | – | –
COc1ccc2c(c1)/C(=N/Nc1ccc(C(C)C)cc1)C(=O)N2C1CC1 [Compound 28, (Z)-1-Cyclopropyl-3-(2-(4-isopropylphenyl)hydrazono)-5-methoxyindolin-2-one] | 6.36 | – | – | – | – | – | fully viable | 21 µM (≈ 7.34 µg/mL) | 0.8 ± 0.13 µM | about 30% | ~50%

— publication PMC6100259, “Insights into Structure-Activity Relationships of 3-Arylhydrazonoindolin-2-One Derivatives for Their Multitarget Activity on β-Amyloid Aggregation and Neurotoxicity” (Molecules : A Journal of Synthetic Chemistry and Natural …, 2018)
